Measurements published in PMC7159882, “Polyunsaturated fatty acid analogues differentially affect cardiac NaV, CaV, and KV channels through unique mechanisms” (eLife, 2020).
“And” between values parts separate entries of the source, which are not always exact repeats. Equal entries are not always repeated.

Target: T1, Nav1.5/β1 (Homo sapiens, UniProt Q14524)
T1 construct: Nav1.5 (UniProt: Q14524.1); expressed in transfected cells; host or cells: Xenopus laevis oocytes (cRNA injection, Nav1.5:β1 2:1 by weight)
Test: Two-electrode voltage clamp of Nav1.5/β1 expressed in Xenopus oocytes
Format: cell-based
Details: for INa I/I0: relative current at 0 mV
Method: Molecular Biology cRNA encoding Kv7.1 (UniProt: P51787), KCNE1 (UniProt: P15382.1), Nav1.5 (UniProt: Q14524.1), Nav β1 (UniProt: […]), Nav β3 (UniProt: […]), Cav1.2 (GenBank: CAA84346), Cav β3 (Uniprot: P54286), Cav β2 (Uniprot: P54288), and Cav α2δ (Uniprot: P13806) were transcribed using the mMessage mMachine T7 kit (Ambion). 50 ng of cRNA was injected into defolliculated Xenopus laevis oocytes (Ecocyte, Austin, TX): For Kv7.1/KCNE1 channel expression, we injected a 3:1, weight:weight (Kv7.1:KCNE1) cRNA ratio. For Nav1.5 channel expression, we injected a 2:1, weight:weight (Nav1.5:β1) cRNA ratio. For Cav1.2 channel expression, we injected a 2:1:1, weight:weight (Cav1.2:β3:α2δ) cRNA ratio. The exact stoichiometry for channel macromolecular complexes, including α -subunits and auxiliary subunits is not clear for many ion channels. For example, there have been multiple reported stoichiometries for Kv7.1:KCNE1 determined in heterologous expression systems with some groups reporting flexible stoichiometry of 4 Kv7.1: 1–4 KCNE1 and others reporting a fixed stoichiometry of 4 Kv7.1: 2 KCNE1 ([Murray et al., 2016]; [Nakajo et al., 2010]). The ratios of cRNA of α- and auxiliary subunits that we injected in Xenopus laevis oocytes are such that all α-subunits are assumed to be in complex with auxiliary subunits. This allows a more homogenous population of ion channels with auxiliary subunits. One caveat to expressing ion channels as macromolecular complexes is that there are many other auxiliary subunits that could associate with the channel α -subunit that are present in cardiomyocytes and have the potential to alter PUFA-induced effects, but that are not being co-expressed in our experiments. In this work, we are co-expressing some of the auxiliary subunits that have been primarily reported to associate with their respective α -subunits in cardiomyocytes. Following cRNA injection, cells were incubated for 72–96 hr in standard ND96 solution (96 mM NaCl, 2 mM KCl, 1 mM MgCl2, 1.8 mM CaCl2, 5 mM HEPES; pH = 7.5) containing 1 mM pyruvate at 16°C prior to electrophysiological recordings.
Xenopus laevis oocytes were recorded in the two-electrode voltage clamp (TEVC) configuration. Recording pipettes were filled with 3 M KCl. The recording chamber was filled with ND96 (96 mM NaCl, 2 mM KCl, 1 mM MgCl2, 1.8 mM CaCl2, 5 mM HEPES; pH 7.5). For Cav1.2/β3/α2δ channel recordings, Xenopus oocytes were injected with 50 nl of 100 mM EGTA and incubated at 10°C for 30 min prior to electrophysiological recordings in order to sequester cytosolic calcium. In addition, Cav1.2/β3/α2δ channel recordings were done in Ca^2+-free solutions, using Ba^2+ as the charge carrier, to prevent calcium-dependent inactivation of Cav1.2/β3/α2δ channels. Calcium-dependent inactivation was not studied in this work, due to the presence of large calcium-activated chloride currents present in Xenopus laevis oocytes. PUFAs were obtained from Cayman Chemical (Ann Arbor, MI.) or synthesized in house (Linköping, Sweden) through methods previously described ([Bohannon et al., 2020]) and kept at −20 °C as 100 mM stock solutions in ethanol. Serial dilutions of the different PUFAs were prepared from stocks to make 0.2 μM, 0.7 μM, 2 μM, 7 μM, and 20 μM concentrations in ND96 solutions (pH = 7.5). PUFAs were perfused into the recording chamber using the Rainin Dynamax Peristaltic Pump (Model RP-1) (Rainin Instrument Co., Oakland, CA. USA).
Electrophysiological recordings were obtained using Clampex 10.3 software (Axon, pClamp, Molecular Devices). To measure Kv7.1/KCNE1 currents we apply PUFAs as the membrane potential is stepped every 30 s from −80 mV to 0 mV for 5 s before stepping to −40 mV and back to −80 mV to ensure that the PUFA effects on the current at 0 mV reached steady state. A voltage-step protocol was used to measure the current vs. voltage (I-V) relationship before PUFA application and after the PUFA effects had reached steady state for each concentration of PUFA. […]

T1 sequence (Q14524 whole entry): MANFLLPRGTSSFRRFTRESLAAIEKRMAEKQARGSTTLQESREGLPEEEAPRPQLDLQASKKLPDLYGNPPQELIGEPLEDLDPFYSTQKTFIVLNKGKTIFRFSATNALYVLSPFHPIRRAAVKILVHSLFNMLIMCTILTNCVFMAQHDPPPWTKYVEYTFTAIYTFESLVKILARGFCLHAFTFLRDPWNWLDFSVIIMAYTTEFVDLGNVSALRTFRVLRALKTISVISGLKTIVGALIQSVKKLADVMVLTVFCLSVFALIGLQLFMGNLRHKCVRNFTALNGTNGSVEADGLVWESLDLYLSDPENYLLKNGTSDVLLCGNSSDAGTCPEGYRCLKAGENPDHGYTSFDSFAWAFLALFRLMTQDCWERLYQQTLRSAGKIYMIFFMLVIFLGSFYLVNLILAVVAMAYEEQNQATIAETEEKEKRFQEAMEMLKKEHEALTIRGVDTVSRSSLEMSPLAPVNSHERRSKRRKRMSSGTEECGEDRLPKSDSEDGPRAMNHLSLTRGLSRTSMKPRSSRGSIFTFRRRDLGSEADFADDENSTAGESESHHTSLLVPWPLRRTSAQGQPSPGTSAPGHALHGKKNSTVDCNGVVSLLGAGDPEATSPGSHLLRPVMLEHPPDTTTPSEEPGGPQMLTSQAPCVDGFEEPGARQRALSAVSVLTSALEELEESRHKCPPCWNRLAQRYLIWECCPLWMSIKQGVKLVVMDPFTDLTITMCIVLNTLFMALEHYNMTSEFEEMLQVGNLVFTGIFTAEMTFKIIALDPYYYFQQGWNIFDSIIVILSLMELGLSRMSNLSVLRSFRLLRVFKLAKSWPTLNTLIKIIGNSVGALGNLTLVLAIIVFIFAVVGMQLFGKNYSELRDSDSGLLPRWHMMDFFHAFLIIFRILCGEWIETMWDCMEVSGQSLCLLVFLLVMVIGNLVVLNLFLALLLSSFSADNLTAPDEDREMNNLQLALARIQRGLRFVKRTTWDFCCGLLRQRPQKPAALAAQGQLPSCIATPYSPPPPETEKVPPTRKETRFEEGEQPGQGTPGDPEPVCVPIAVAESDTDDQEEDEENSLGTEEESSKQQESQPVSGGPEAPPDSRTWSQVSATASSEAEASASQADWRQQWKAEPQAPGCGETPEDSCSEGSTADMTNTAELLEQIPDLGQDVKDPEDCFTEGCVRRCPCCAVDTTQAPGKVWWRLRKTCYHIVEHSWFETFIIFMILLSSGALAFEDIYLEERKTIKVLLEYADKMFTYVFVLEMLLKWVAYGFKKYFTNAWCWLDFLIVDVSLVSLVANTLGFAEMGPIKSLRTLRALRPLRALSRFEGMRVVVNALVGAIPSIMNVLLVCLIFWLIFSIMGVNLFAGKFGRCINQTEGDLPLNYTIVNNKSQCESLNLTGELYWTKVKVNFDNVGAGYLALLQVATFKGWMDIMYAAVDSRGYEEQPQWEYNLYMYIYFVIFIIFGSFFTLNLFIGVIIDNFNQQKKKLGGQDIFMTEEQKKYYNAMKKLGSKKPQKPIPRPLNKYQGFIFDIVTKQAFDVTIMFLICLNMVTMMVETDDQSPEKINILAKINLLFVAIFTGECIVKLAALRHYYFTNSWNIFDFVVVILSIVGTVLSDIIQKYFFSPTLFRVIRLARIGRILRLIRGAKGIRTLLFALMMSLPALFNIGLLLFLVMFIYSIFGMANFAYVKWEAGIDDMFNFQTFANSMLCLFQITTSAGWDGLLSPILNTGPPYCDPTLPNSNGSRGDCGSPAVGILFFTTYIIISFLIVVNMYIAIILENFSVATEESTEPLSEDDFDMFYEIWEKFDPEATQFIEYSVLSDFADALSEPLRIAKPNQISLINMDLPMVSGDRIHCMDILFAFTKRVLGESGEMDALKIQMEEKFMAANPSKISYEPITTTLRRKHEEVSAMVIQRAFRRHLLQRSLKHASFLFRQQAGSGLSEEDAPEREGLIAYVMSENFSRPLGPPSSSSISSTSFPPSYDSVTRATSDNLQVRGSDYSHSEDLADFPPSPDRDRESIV
T1 sequence (Q07699 19-218 partner): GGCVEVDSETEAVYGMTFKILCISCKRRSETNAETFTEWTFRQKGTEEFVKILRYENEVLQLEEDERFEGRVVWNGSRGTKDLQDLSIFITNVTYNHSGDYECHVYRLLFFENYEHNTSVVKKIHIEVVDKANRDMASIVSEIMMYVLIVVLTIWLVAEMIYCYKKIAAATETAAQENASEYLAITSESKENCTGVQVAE

SMILES	Gmax/Gmax0 (0.2 μM)	ΔV0.5 (voltage dependence of inactivation) (0.2 μM) [mV]	INa I/I0 (0.2 μM)	Gmax/Gmax0 (0.7 μM)	ΔV0.5 (voltage dependence of inactivation) (0.7 μM) [mV]	INa I/I0 (0.7 μM)	Gmax/Gmax0 (2 μM)	ΔV0.5 (voltage dependence of inactivation) (2 μM) [mV]	INa I/I0 (2 μM)	Gmax/Gmax0 (7 μM)	ΔV0.5 (voltage dependence of inactivation) (7 μM)	INa I/I0 (7 μM)	Gmax/Gmax0 (20 μM)	ΔV0.5 (voltage dependence of inactivation) (20 μM) [mV]	INa I/I0 (20 μM)	further results
CCCCC/C=C\C/C=C\CC/C=C\CCCC(=O)NCCS(=O)(=O)O [Pin-taurine]	1.2 ± 0.2	1.6 ± 0.9	1.2 ± 0.1	1.2 ± 0.2	0.9 ± 1.1	1.2 ± 0.1	1.0 ± 0.1	-3.0 ± 1.9	1.0 ± 0.1	0.4 ± 0.09	–16 ± 2.7 mV	0.5 ± 0.1 (p=0.01)	0.1 ± 0.02	-28.1 ± 2.4	0.2 ± 0.03	Gmax/Gmax0 (7 μM, listed as pin-taurine): 0.4 ± 0.1; ΔV0.5 (voltage dependence of inactivation) (7 μM, listed as pin-taurine): -16.0 ± 2.7 mV; INa I/I0 (7 μM, listed as pin-taurine): 0.5 ± 0.1
CCCCC/C=C\C/C=C\CCCCCCCC(=O)NCC(=O)O [Lin-glycine]	1.0 ± 0.03	-0.2 ± 0.06	1.0 ± 0.03	1.0 ± 0.05	-1.2 ± 0.3	1.0 ± 0.04	0.9 ± 0.06	-4.3 ± 0.8	0.9 ± 0.1	0.5 ± 0.1	−15.2 ± 2.8 mV	0.5 ± 0.1 (p=0.02)	0.2 ± 0.02	-21.7 ± 1.2	0.3 ± 0.02	ΔV0.5 (voltage dependence of inactivation) (7 μM, listed as lin-glycine): -15.2 ± 2.8 mV; INa I/I0 (7 μM, listed as lin-glycine): 0.5 ± 0.1
CC/C=C\C/C=C\C/C=C\C/C=C\C/C=C\C/C=C\CCC(=O)NCC(=O)O [DHA-glycine, docosahexaenoyl glycine]	1.0 ± 0.02	0.3 ± 0.1	1.0 ± 0.02	1.0 ± 0.03	-0.2 ± 0.6	1.0 ± 0.04	1.0 ± 0.04	-0.3 ± 0.5	1.1 ± 0.05	1.0 ± 0.04	−2.4 ± 0.6 mV and -2.4 ± 0.7 mV	–	0.5 ± 0.1	-11.5 ± 1.7	0.7 ± 0.1	–
CCCCC/C=C\C/C=C\C/C=C\C/C=C\CCCC(=O)NCCS(=O)(=O)O [N-AT, N-arachidonoyl taurine]	1.0 ± 0.04	-0.2 ± 0.5	1.0 ± 0.09	1.0 ± 0.06	0.2 ± 1.4	1.0 ± 0.07	0.7 ± 0.03	-5.2 ± 0.4	0.7 ± 0.08	0.3 ± 0.04	–16.7 ± 3.5 mV	–	0.07 ± 0.01	-27.5 ± 2.9	0.1 ± 0.02	–
CCCCC/C=C\C/C=C\CCCCCCCC(=O)NCCS(=O)(=O)O [Lin-taurine, Linoleoyl taurine]	1.0 ± 0.01	-0.3 ± 0.1	1.0 ± 0.01	1.0 ± 0.01	-2.2 ± 0.7	1.0 ± 0.05	0.9 ± 0.05	-8.8 ± 1.7	0.6 ± 0.07	0.5 ± 0.07	−23.5 ± 1.9 mV	0.1 ± 0.02 (p=0.0001)	0.3 ± 0.04	-34.9 ± 1.5	0.1 ± 0.01	ΔV0.5 (voltage dependence of inactivation) (7 μM, listed as lin-taurine): -23.5 ± 1.9 mV; INa I/I0 (7 μM, listed as lin-taurine): 0.1 ± 0.02; shift of the voltage dependence of activation (0.2-20 μM): no shift in the voltage dependence of activation
CCCCC/C=C\C/C=C\CC/C=C\CCCC(=O)NCC(=O)O [Pin-glycine]	1.0 ± 0.03	0.4 ± 0.3	1.1 ± 0.05	1.0 ± 0.03	0.4 ± 0.6	1.1 ± 0.1	0.9 ± 0.04	-0.3 ± 0.7	1.0 ± 0.1	0.7 ± 0.08	–4.7 ± 1.9 mV	0.7 ± 0.1 (p=0.09)	0.3 ± 0.1	-17.8 ± 4.2	0.3 ± 0.1	Gmax/Gmax0 (7 μM, listed as pin-glycine): 0.7 ± 0.1; ΔV0.5 (voltage dependence of inactivation) (7 μM, listed as pin-glycine): -4.8 ± 1.9 mV; INa I/I0 (7 μM, listed as pin-glycine): 0.7 ± 0.1
